pIC50: −log10 of the molar value.
Legend:
[1] = test system: L3.6pl human pancreatic cancer cells; test: Cytotoxicity dose-response (MTS) in L3.6pl cells; type: cell-based; conditions: L3.6pl cells, previously determined; read-out: 72 h IC50
Method: L3.6pl Studies. Compounds 9 and 10 were evaluated in the metastatic human pancreatic cancer cell line, L3.6pl. L3.6pl has a K-ras mutation, and high polyamine uptake activity.^7 A dose-response curve was obtained for each compound in L3.6pl cells to determine the 72 h L3.6pl IC50 value, described as the dose at which L3.6pl cells were 50% viable compared to the untreated control.
Regarding the biological studies performed in the following examples, it is noted that CHO K1, CHO-MG, and L3.6pl cells were grown in RPMI 1640 medium supplemented with 10% fetal bovine serum (FBS) and 1% penicillin/streptomycin. All cells were grown at 37° C. under a humidified 5% CO2 atmosphere. Aminoguanidine (1 mM used for CHO K1 and CHOMG cells and 250 μM for L3.6pl) was added to the growth medium to prevent oxidation of the compounds of the bovine serum amine oxidase enzyme that is present in calf serum. The cells used were in early to mid log phase and CHO and CHOMG were plated out at 1000 cells/well, whereas the L3.6pl cells were plated at 500 cells/well in a 96 well plate format.
This example illustrates aspects according to various embodiments pertaining to IC50 determinations and cell viability studies. Cell growth was assayed in sterile 96-well microtiter plates (Costar 3599, Corning, N.Y.). CHO K1 or CHOMG cells were plated at 1,000 cells/70 μL and L3.6pl cells at 500 cells/70 μL. The drug solutions of appropriate concentration in phosphate buffered saline (PBS) were added 10 μL per well after overnight incubation. After drug exposure (e.g., for 48 h for CHO K1 and CHO-MG and 48 h or 72 h for L3.6pl), cell growth was determined by measuring formazan formation from the 3-(4,5dimethylthiazol-2-yl)-5-(3-carboxymethoxyphenyl)-2-(4-sulfenyl)-2H tetrazolium, inner salt (MTS) using SynergyMx Biotek microplate reader for absorbance (490 nm) measurements.^27 All experiments were run in triplicate.

[2] = test system: polyamine transport system (PTS); conditions: CHO vs CHO-MG (ref 17); cited from earlier work
[3] = test system: L3.6pl cells; test: Intracellular polyamine and Ant-44 levels (N-dansylation, HPLC) in L3.6pl cells; type: cell-based, human; conditions: Ant-44 only control (2 μM), 72 h
Method: One explanation for the enhanced potency was that compound 10 (1666.255) increased polyamine import and, as a result, may have increased intracellular Ant-44 levels. To test this hypothesis, L3.6pl cells were dosed with a fixed concentration of Ant-44 (2 μM) alone and in combination with increasing concentrations of compound 10 (1666.255) to explore how this combination therapy affected intracellular polyamine pools and Ant-44 import.
FIG. 7 is an example according to various embodiments, illustrating both single and combination therapies in L3.6pl cells with Ant-44 and compound 10 (1666.255) after 72 h incubation. Polyamine and Ant-44 levels (expressed as nmoles/mg protein) and relative % viability versus an untreated control were observed after 72 h incubation at 37° C. The untreated control was run in parallel and polyamine levels determined in duplicate and % cell viability in triplicate. Ant-44 was dosed at a fixed concentration of 2 μM and compound 10 (1666.255) at increasing concentrations. Cell viability tracked well with total intracellular polyamine levels (sum of putrescine, spermidine and spermine).
It was concluded that compound 10 was neither acting as a PTI nor as a polyamine import agonist. How then could it lead to intracellular polyamine depletion? […] To test this hypothesis, L3.6pl cells were dosed with increasing concentrations of compound 10 (1666.255) without Ant44. If compound 10 (1666.255) was acting on polyamine pools, one should see a reduction in total polyamine levels as well as decreased cell viability in a dose dependent manner upon increasing levels of 10. Therefore, the toxicity of compound 10 and intracellular polyamine levels after 72 h exposure to 10 were measured (FIG. 8).
FIG. 8 is an example according to various embodiments, illustrating intracellular polyamine levels (expressed as nmoles polyamine/mg protein) in L3.6pl cells dosed with increasing concentrations of compound 10 (1666.255) after cells were incubated for 72 h at 37° C. The untreated control was run in parallel and polyamine levels determined in duplicate via N-dansylation and HPLC. The data was averaged and reported as nmol polyamine (PA)/mg protein.
This example illustrates aspects according to various embodiments pertaining to a 72 h experiment with Compound 10 in L3.6pl cells. Ten milliliters of a cell suspension containing L3.6pl human pancreatic cancer cells (50,000 cells/mL) and aminoguanidine (1 mM) were placed in treated plastic Petri dishes (d=9 cm) and incubated overnight at 37° C. After 24 h, the cells were dosed with compound 10 at 2 μM, 5 μM, or 7 μM. (Note: Stock solutions of 10 at 2, 5, and 7 mM were dissolved in phosphate buffered saline (PBS) and were filtered through a 0.2 μm filter prior to use. The experiments were maintained with a total volume of 10.01 mL where 10 mL of the cell suspension was placed in a plastic dish and each compound or the equivalent PBS volume was added to make up the total volume 10.01 mL for each dish. For example, for the control experiment PBS (10 μL) was added to make up the total volume (10 mL+10 μL=10.01 mL). After 72 h incubation, the cells were collected first by pipetting off the supernatant containing floating dead cells from the culture dish as well as media and placing them into 15 mL tubes. The supernatant containing floating cells was centrifuged (4 min at 1,000 rpm). The cell-free supernatant (supernatant #1) was collected into a new 15 mL tube and quantified (˜8.6 mL) and was then stored frozen and was later quantified by LCMS to investigate the media composition of particular polyamine and amino acid analytes. The attached cells on the dish were washed with PBS (5 mL). The PBS wash was removed by suction and additional PBS (2 mL) was added and again suctioned off to provide twice-washed cells still adhered to the dish. Trypsin (2 mL) was then added to each dish and incubated (3-5 min) until all the cells were detached. Fresh media (8 mL) was added to quench the trypsin. […]

[4] = test system: L3.6pl cells; conditions: CDAP 100 μM (ref 10); cited from earlier work
[5] = test system: L3.6pl human pancreatic cancer cells; conditions: L3.6pl cells, CDAP 100 μM (ref 10); cited from earlier work

SMILES: Cl.NCCCCNCCCCNCc1c2ccccc2cc2ccccc12 [Ant-44, reference compound]
- pIC50 [1]: 5.40
- preference for CHO cell line over CHO-MG (IC50 comparison) [2]: ~150 fold
- intracellular level of Ant-44 [3]: 2.15±0.10 nmol Ant44/mg protein

SMILES: NCCCNC1CCCCC1 [CDAP, N-(3-aminopropyl)-cyclohexylamine]
- Intracellular Spermine [4]: no detectable spermine
- viability [5]: 100%

From US20210317090A1, “AMINO ACID DEPLETION AGENTS AS ANTIPROLIFERATIVE AGENTS” (University of Central Florida Research Foundation, Inc., priority 2018, published 2021)
